Tests used:
Rattus norvegicus [1] = assay: Toxicity in anesthetized-normotensive Wistar rat assessed as heart rate at 40 mg/kg, ip after 60 mins (reference value: 314.96 +/- 9.442 bpm); format: organism-based; design: dose 40 mg/kg, route intraperitoneal; settings: in vivo, 1 h
Rattus norvegicus [2] = assay: Antiarrhythmic activity in barium chloride-induced Wistar rat assessed as increase in mortality time at 40 mg/kg, ip administered 60 mins before barium chloride challenge (reference value: 682.8 +/- 9.656 secs); format: functional, Heart; settings: route intraperitoneal
Rattus norvegicus [3] = assay: Toxicity in anesthetized-normotensive Wistar rat assessed as heart rate at 40 mg/kg, ip after 15 mins (reference value: 313.93 +/- 9.912 bpm); format: organism-based; design: dose 40 mg/kg, route intraperitoneal; settings: in vivo, 0.25 h
Rattus norvegicus [4] = assay: Toxicity in anaesthetized-Wistar rat assessed as QRS ECG interval at 40 mg/kg, ip after 15 mins (reference value: 18.9 +/- 1.563 ms); format: organism-based; design: dose 40 mg/kg, route intraperitoneal; settings: in vivo, 0.25 h
Rattus norvegicus [5] = assay: Antihypertensive activity in Wistar rat assessed as mean arterial pressure at 40 mg/kg, ip after 30 mins (reference value: 194.72 +/- 1.002 mmHg); format: functional, Artery; settings: route intraperitoneal
Rattus norvegicus [6] = assay: Toxicity in anaesthetized-Wistar rat assessed as QRS ECG interval at 40 mg/kg, ip measured immediately at 0 min (reference value: 19.6 +/- 1.142 ms); format: organism-based; design: dose 40 mg/kg, route intraperitoneal; settings: in vivo, 0 h
Rattus norvegicus [7] = assay: Toxicity in anesthetized-normotensive Wistar rat assessed as heart rate at 40 mg/kg, ip measured immediately at 0 min (reference value: 316.62 +/- 9.643 bpm); format: organism-based; design: dose 40 mg/kg, route intraperitoneal; settings: in vivo, 0 h
Rattus norvegicus [8] = assay: Antihypertensive activity in Wistar rat assessed as mean arterial pressure at 40 mg/kg, ip after 60 mins (reference value: 195.11 +/- 0.531 mmHg); format: functional, Artery; settings: route intraperitoneal
Rattus norvegicus [9] = assay: Toxicity in anaesthetized-Wistar rat assessed as Q-T ECG interval at 40 mg/kg, ip after 15 mins (reference value: 79.4 +/- 1.270 ms); format: organism-based; design: dose 40 mg/kg, route intraperitoneal; settings: in vivo, 0.25 h
Rattus norvegicus [10] = assay: Toxicity in anaesthetized-Wistar rat assessed as P-Q ECG interval at 40 mg/kg, ip measured immediately at 0 min (reference value: 52.4 +/- 0.927 ms); format: organism-based; design: dose 40 mg/kg, route intraperitoneal; settings: in vivo, 0 h
Rattus norvegicus [11] = assay: Antiarrhythmic activity in barium chloride-induced Wistar rat assessed as increase in appearance time of arrhythmia at 40 mg/kg, ip administered 60 mins before barium chloride challenge (reference value: 129.4 +/- 4.373 sec); format: functional, Heart; settings: route intraperitoneal
Rattus norvegicus [12] = assay: Toxicity in […] normotensive Wistar rat assessed as mean arterial pressure at 40 mg/kg, ip after 60 mins (reference value: 95.07 +/- 1.973 mmHg); format: organism-based, Artery; design: dose 40 mg/kg, route intraperitoneal; settings: in vivo, 1 h
Rattus norvegicus [13] = assay: Toxicity in anaesthetized-Wistar rat assessed as Q-T ECG interval at 40 mg/kg, ip after 45 mins (reference value: 78.8 +/- 0.927 ms); format: organism-based; design: dose 40 mg/kg, route intraperitoneal; settings: in vivo, 0.75 h
Rattus norvegicus [14] = assay: Toxicity in anaesthetized-Wistar rat assessed as QRS ECG interval at 40 mg/kg, ip after 60 mins (reference value: 19.3 +/- 0.873 ms); format: organism-based; design: dose 40 mg/kg, route intraperitoneal; settings: in vivo, 1 h
Rattus norvegicus [15] = assay: Toxicity in anaesthetized-Wistar rat assessed as P-Q ECG interval at 40 mg/kg, ip after 45 mins (reference value: 52.5 +/- 0.780 ms); format: organism-based; design: dose 40 mg/kg, route intraperitoneal; settings: in vivo, 0.75 h
Rattus norvegicus [16] = assay: Toxicity in […] normotensive Wistar rat assessed as mean arterial pressure at 40 mg/kg, ip after 30 mins (reference value: 94.68 +/- 1.213 mmHg); format: organism-based, Artery; design: dose 40 mg/kg, route intraperitoneal; settings: in vivo, 0.5 h
Rattus norvegicus [17] = assay: Toxicity in anaesthetized-Wistar rat assessed as Q-T ECG interval at 40 mg/kg, ip after 60 mins (reference value: 79.7 +/- 0.965 ms); format: organism-based; design: dose 40 mg/kg, route intraperitoneal; settings: in vivo, 1 h
Rattus norvegicus [18] = assay: Toxicity in anesthetized-normotensive Wistar rat assessed as heart rate at 40 mg/kg, ip after 45 mins (reference value: 316.82 +/- 8.452 bpm); format: organism-based; design: dose 40 mg/kg, route intraperitoneal; settings: in vivo, 0.75 h
Rattus norvegicus [19] = assay: Antihypertensive activity in Wistar rat assessed as mean arterial pressure at 40 mg/kg, ip after 15 mins (reference value: 195.68 +/- 1.623 mmHg); format: functional, Artery; settings: route intraperitoneal
Rattus norvegicus [20] = assay: Toxicity in […] normotensive Wistar rat assessed as mean arterial pressure at 40 mg/kg, ip after 45 mins (reference value: 94.83 +/- 0.943 mmHg); format: organism-based, Artery; design: dose 40 mg/kg, route intraperitoneal; settings: in vivo, 0.75 h
Rattus norvegicus [21] = assay: Toxicity in anaesthetized-Wistar rat assessed as P-Q ECG interval at 40 mg/kg, ip after 30 mins (reference value: […] +/- 0.927 ms); format: organism-based; design: dose 40 mg/kg, route intraperitoneal; settings: in vivo, 0.5 h
Rattus norvegicus [22] = assay: Antihypertensive activity in Wistar rat assessed as mean arterial pressure at 40 mg/kg, ip measured immediately at 0 min (reference value: 194.08 +/- 1.962 mmHg); format: functional, Artery; settings: route intraperitoneal
Rattus norvegicus [23] = assay: Toxicity in […] normotensive Wistar rat assessed as mean arterial pressure at 40 mg/kg, ip measured immediately at 0 min (reference value: 94.21 +/- 2.065 mmHg); format: organism-based, Artery; design: dose 40 mg/kg, route intraperitoneal; settings: in vivo, 0 h
Rattus norvegicus [24] = assay: Toxicity in anaesthetized-Wistar rat assessed as P-Q ECG interval at 40 mg/kg, ip after 60 mins (reference value: […] +/- 0.924 ms); format: organism-based; design: dose 40 mg/kg, route intraperitoneal; settings: in vivo, 1 h
Rattus norvegicus [25] = assay: Toxicity in anaesthetized-Wistar rat assessed as Q-T ECG interval at 40 mg/kg, ip after 30 mins (reference value: 78.3 +/- 0.860 ms); format: organism-based; design: dose 40 mg/kg, route intraperitoneal; settings: in vivo, 0.5 h
Rattus norvegicus [26] = assay: Toxicity in anaesthetized-Wistar rat assessed as QRS ECG interval at 40 mg/kg, ip after 45 mins (reference value: 20.2 +/- 1.348 ms); format: organism-based; design: dose 40 mg/kg, route intraperitoneal; settings: in vivo, 0.75 h
Rattus norvegicus [27] = assay: Toxicity in […] normotensive Wistar rat assessed as mean arterial pressure at 40 mg/kg, ip after 15 mins (reference value: 93.81 +/- 1.543 mmHg); format: organism-based, Artery; design: dose 40 mg/kg, route intraperitoneal; settings: in vivo, 0.25 h
Rattus norvegicus [28] = assay: Toxicity in anaesthetized-Wistar rat assessed as QRS ECG interval at 40 mg/kg, ip after 30 mins (reference value: 19.9 +/- 1.393 ms); format: organism-based; design: dose 40 mg/kg, route intraperitoneal; settings: in vivo, 0.5 h
Rattus norvegicus [29] = assay: Toxicity in anaesthetized-Wistar rat assessed as P-Q ECG interval at 40 mg/kg, ip after 15 mins (reference value: 52.2 +/- 1.158 ms); format: organism-based; design: dose 40 mg/kg, route intraperitoneal; settings: in vivo, 0.25 h
Rattus norvegicus [30] = assay: Toxicity in anaesthetized-Wistar rat assessed as Q-T ECG interval at 40 mg/kg, ip measured immediately at 0 min (reference value: 78.8 +/- 1.030 ms); format: organism-based; design: dose 40 mg/kg, route intraperitoneal; settings: in vivo, 0 h
Rattus norvegicus [31] = assay: Antihypertensive activity in Wistar rat assessed as mean arterial pressure at 40 mg/kg, ip after 45 mins (reference value: 193.96 +/- 0.865 mmHg); format: functional, Artery; settings: route intraperitoneal
Rattus norvegicus [32] = assay: Toxicity in anesthetized-normotensive Wistar rat assessed as heart rate at 40 mg/kg, ip after 30 mins (reference value: 317.68 +/- 7.631 bpm); format: organism-based; design: dose 40 mg/kg, route intraperitoneal; settings: in vivo, 0.5 h

SMILES	Activity (Rattus norvegicus [1])	Time (Rattus norvegicus [2])	Activity (Rattus norvegicus [3])	Activity (Rattus norvegicus [4])	Activity (Rattus norvegicus [5])	Activity (Rattus norvegicus [6])	Activity (Rattus norvegicus [7])	Activity (Rattus norvegicus [8])	Activity (Rattus norvegicus [9])	Activity (Rattus norvegicus [10])	Time (Rattus norvegicus [11])	Activity (Rattus norvegicus [12])	Activity (Rattus norvegicus [13])	Activity (Rattus norvegicus [14])	Activity (Rattus norvegicus [15])	Activity (Rattus norvegicus [16])	Activity (Rattus norvegicus [17])	Activity (Rattus norvegicus [18])	Activity (Rattus norvegicus [19])	Activity (Rattus norvegicus [20])	further results
CCN(CC)CC(O)CN1C(=O)/C(=C\c2ccccc2)S/C1=N\c1ccccc1 (stereo unspecified)	312.28 bpm	1142.4 s	312.24 bpm	19.4 min	161.27 mmHg	18.4 min	319.65 bpm	159.87 mmHg	81.4 min	52 ms	343.1 s	73.31 mmHg	84.8 min	21.4 min	54.2 min	68.93 mmHg	86.4 ms	309.56 bpm	172.98 mmHg	63.51 mmHg	Activity (Rattus norvegicus [21]): 53.8 min; Activity (Rattus norvegicus [22]): 194.43 mmHg; Activity (Rattus norvegicus [23]): 91.39 mmHg; Activity (Rattus norvegicus [24]): 55.6 min; Activity (Rattus norvegicus [25]): 83.2 min; Activity (Rattus norvegicus [26]): 20.6 min; Activity (Rattus norvegicus [27]): 79.23 mmHg; Activity (Rattus norvegicus [28]): 21.2 ms; Activity (Rattus norvegicus [29]): 52.2 min; Activity (Rattus norvegicus [30]): 80.4 min; Activity (Rattus norvegicus [31]): 119.43 mmHg; Activity (Rattus norvegicus [32]): 274.66 bpm
O=C1/C(=C\c2ccccc2)S/C(=N\c2ccccc2)N1CC(O)CN(c1ccccc1)c1ccccc1 (stereo unspecified)	302.92 bpm	768.5 s	305.46 bpm	21.2 min	169.59 mmHg	20.3 min	316.34 bpm	169.93 mmHg	71.5 min	50.6 ms	234.8 s	90.27 mmHg	0.00119 min	20.4 min	53.4 min	85.08 mmHg	70.7 ms	289.26 bpm	183.55 mmHg	85.43 mmHg	Activity (Rattus norvegicus [21]): 54.1 min; Activity (Rattus norvegicus [22]): 194.26 mmHg; Activity (Rattus norvegicus [23]): 94.09 mmHg; Activity (Rattus norvegicus [24]): 52.6 min; Activity (Rattus norvegicus [25]): 72.3 min; Activity (Rattus norvegicus [26]): 21.6 min; Activity (Rattus norvegicus [27]): 87.32 mmHg; Activity (Rattus norvegicus [28]): 22.1 ms; Activity (Rattus norvegicus [29]): 51.2 min; Activity (Rattus norvegicus [30]): 70.2 min; Activity (Rattus norvegicus [31]): 159.27 mmHg; Activity (Rattus norvegicus [32]): 292.41 bpm
CCCN(CCC)CC(O)CN1C(=O)/C(=C\c2ccccc2)S/C1=N\c1ccccc1 (stereo unspecified)	312.43 bpm	938.4 s	319.34 bpm	23.2 min	170.1 mmHg	22.8 min	329.62 bpm	172.23 mmHg	72.9 min	49.4 ms	266.1 s	88.98 mmHg	74.9 min	22.5 min	52.4 min	79.16 mmHg	72.7 ms	305.32 bpm	184.76 mmHg	72.37 mmHg	Activity (Rattus norvegicus [21]): 51.3 min; Activity (Rattus norvegicus [22]): 193.57 mmHg; Activity (Rattus norvegicus [23]): 95.41 mmHg; Activity (Rattus norvegicus [24]): 50.2 min; Activity (Rattus norvegicus [25]): 73.4 min; Activity (Rattus norvegicus [26]): 24.1 min; Activity (Rattus norvegicus [27]): 91.1 mmHg; Activity (Rattus norvegicus [28]): 23.8 ms; Activity (Rattus norvegicus [29]): 49.7 min; Activity (Rattus norvegicus [30]): 72.5 min; Activity (Rattus norvegicus [31]): 153.26 mmHg; Activity (Rattus norvegicus [32]): 289.52 bpm
